“Also recorded” adds a separate entry of the source.

One assay deals with mast cells (RBL-2H3). The class given is cell-based.
Assay [1] concerns lung epithelial cells (A-549). The class given is cell-based, human.
Assay [2] is described as follows: Liposome fusion assay (Rhodamine B R18 dequenching). From the text:
Liposomes are picked-up by cells by endocytosis and form an endosome. Within a few minutes the pH in the endosome drops to 5 and degradation begins. In order to accelerate the fusion of the liposome with the endosome membrane and release its DNA content into the cytoplasm, fusogenic peptides (Plank et al., 1994, Puyal et al., 1994), triggered by the low pH, are integrated into the liposomes membrane (0.1-2%). The most suitable fusogenic peptide and its concentration in the liposome are selected, using in-vitro fluorescence method (Hoekstra et al., 1984) at different pH levels.
Rhodamine B (R18) quenching curve: Rhodamine is characterized by self-quenching, which increases linearly with increasing concentration of R18. […] A total fusion of the two types of liposomes would result in a reduction of R18 concentration or quenching by ˜50%. Since liposomes also tend to fuse with their own type, this high level of fusion can never be achieved.
Liposomes containing 8 Mol % of R18 are mixed with liposomes conjugated to the fusion peptide at pH 7.4 and the fluorescence is measured using […] at λ=550 nm and emission at λ=580 nm. The pH is adjusted to 5.0 by adding few drops of 1N HCl and the change in fluorescence is measured. The total fluorescence is then determined by treating the mixture with Triton X-100. […]

Regarding “SEQ ID NO: 1: targeting peptide whose sequence derives from endothelin-1, for lung mast cells and lung epithelial cells (CHLDIIW)”, in the assay on mast cells (RBL-2H3), the “binding / targeting to mast cells” value was “efficient targeting peptide; also recorded: high affinity”. The “binding / targeting to lung epithelial cells” value in assay [1] is “efficient targeting peptide; also recorded: high affinity”.

In the case of “SEQ ID NO: 2: fusogenic peptide derived from the amphiphatic, pH-dependent peptide of influenza virus hemagglutinin (CGYWGDIMGEWGDEIFGEIAGFLG)”, the “activity as a fusogen” value in assay [2] is recorded as “highly active”.

These data come from US7741431B2, “Liposomes containing novel targeting and/or fusogenic peptides, preparations containing them and therapeutic use thereof” (The United States of America as represented by the …, priority 2005, dated 2010).
